# Laboratory results taken from patent US10836793B2, “Compounds for the treatment of neurodegenerative diseases” (University of South Florida, priority 2018, dated 2020).
# Columns and labels:
# Aβ42 [1] = molecular target: T1, Aβ42 (Homo sapiens, UniProt P05067); experiment: Western blot of Aβ42 aggregation; assay type: biochemical; conditions: 40 μM HW-C-9 and 20 μM Aβ; FIG. 6A
# T1 construct: and 42 amino acids in length (Aβ42)
# Method: (§1) Shown in FIG. 6A is a Western blot of Aβ42, wherein lane 1 is 20 μM of Aβ, lane 2 is 40 μM of HW-155-1 as a control and 20 μM of Aβ, and lane 3 is 40 μM of HW-C-9 and 20 μM of Aβ. Shown in FIG. 6B on the left is mouse brain tissue incubated overnight with and without 25 μM of HW-C-9, and then immunohistochemically stained with Aβ42 antibodies. On the right of FIG. 6B is a graphical quantification of the density and strength of the antibody stains.
# Aβ42 [2] = molecular target: T1, Aβ42; experiment: Thioflavin T (ThT) spectroscopic assay of Aβ42 aggregation; assay type: biochemical; conditions: 1, 5 and 10 μM HW-C-9; Aβ42 5 μM; 37° C.; FIG. 4
# Method: (§2) The effect of HW-C-9 on Aβ42 was analyzed using the Thioflavin T (ThT) spectroscopic assay. Thioflavin T (ThT) is a benzothiazole salt obtained by the methylation of dehydrothiotoluidine with methanol in the presence of hydrochloric acid. ThT was used as a dye to visualize and quantify the presence or fibrilization of misfolded protein aggregates. Briefly, HW-C-9 in Tris Buffered Saline (TBS, pH 7.5) containing 10 μM ThT was added into a black 96 well plate. Aβ42 protein monomer was freshly thawed and used to make a stock 5 μM solution in TBS. An equal volume of Aβ42 solution was added to each well to a final concentration of 2.5 μM Aβ42 and incubated at 37° C. Time-dependent fluorescence change was monitored by a Synergy 2 plate reader at an excitation wavelength of 440 nm and emission at 482 nm. The fluorescence intensity of ThT was measured over time, as ThT changed fluorescence intensity upon binding to the Aβ42 protein aggregates. 100% aggregation was defined as the fluorescence change of 2.5 μM Aβ42 in TBS buffer containing 5 μM ThT after 24 hours.
# In FIG. 4, C1 is 1 μM of HW-C-9, C3 is 5 μM of HW-C-9, and C4 is 10 μM of HW-C-9. Aβ42 was present in all samples at a concentration of 5 μM. The top curve (red line, “Agg”) is the Aβ42-only control.
# [3] = system: recombinant human tau protein; experiment: ThT assay of tau protein aggregation; assay type: biochemical; conditions: 100, 50, 20, 10 and 1 μM HW-C-9; Tau 10 μM; FIG. 5
# Method: as §2
# The effect of HW-C-9 on recombinant human tau protein was analyzed using the ThT assay, as detailed in Example 2, but with tau protein in place of Aβ42. In FIG. 5, C1 is 100 μM of HW-C-9, C2 is 50 μM of HW-C-9, C3 is 20 μM of HW-C-9, C4 is 10 μM of HW-C-9, and C5 is 1 μM of HW-C-9. […]
# [4] = molecular target: human recombinant alpha-synuclein (Homo sapiens, UniProt P37840); experiment: Western blot of alpha-synuclein aggregation; assay type: biochemical; conditions: aggregated for 7 days in the presence of 25 μg/mL HW-C-9; FIG. 7
# Method: The effect of HW-C-9 on synuclein was analyzed with a Western blot. Results are shown in FIG. 7, wherein lane 1 is human recombinant alpha-synuclein (stained with goat anti-human alpha-synuclein antibody) without aggregation as a control, lane 2 is human recombinant alpha-synuclein (stained with goat anti-human alpha-synuclein antibody) aggregated for 7 days, and lane 3 is human recombinant alpha-synuclein (stained with goat anti-human alpha-synuclein antibody) aggregated for 7 days in the presence of 25 μg/mL of HW-C-9.
# [5] = system: Aβ42 amyloid plaques in mouse brain tissue; experiment: Mouse brain tissue incubated with compound, immunohistochemical staining with Aβ42 antibodies; conditions: mouse brain tissue incubated overnight with 25 μM HW-C-9; FIG. 6B
# Method: as §1
# T1 sequence (P05067 672-713 limits assumed): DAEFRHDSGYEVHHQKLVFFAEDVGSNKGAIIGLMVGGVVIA
smiles,measurement,setting,value
C=CCOC(=O)N(CC(=O)N[C@@H](Cc1ccccc1)CN(CC(=O)N[C@@H](CCCCN)CN(CC(=O)N[C@@H](CC(C)C)CN(CC(=O)NCCCCCCCC(=O)NCCCC[C@H](NC(=O)CCCCCCCNC(=O)CN(C[C@H](CC(C)C)NC(=O)CN(C[C@H](CCCCN)NC(=O)CN(C[C@H](Cc1ccccc1)NC(=O)CN(C[C@@H](N)CCCCN)C(=O)OCC=C)C(=O)CCc1ccccc1)C(=O)CC(C)C)C(=O)CC(C)C)C(N)=O)C(=O)CC(C)C)C(=O)CC(C)C)C(=O)CCc1ccccc1)C[C@@H](N)CCCCN [HW-C-9],inhibition of Aβ42 aggregation (Western blot),Aβ42 [1],can inhibit aggregation of Aβ42
same,inhibition of Aβ42 aggregation (ThT fluorescence),Aβ42 [2],can inhibit Aβ42 aggregation at all concentrations tested
same,inhibition of tau protein aggregation (ThT fluorescence),[3],can inhibit aggregation of tau protein at all concentrations tested
same,inhibition of alpha-synuclein aggregation (Western blot),[4],can inhibit aggregation of alpha-synuclein
same,removal of amyloid plaques (density and strength of Aβ42 antibody stains),[5],remove amyloid plaques
